# Data as given in patent publication US7595401B2, “Therapeutic compounds and their use in cancer” (Myriad Pharmaceuticals, Inc., priority 2006, dated 2009).
# Tested on: purified human Hsp90
# Assay: Binding Assay: fluorescence polarization with BODIPY-labeled geldanamycin
# Conditions: 5 μM compound, BODIPY-GM 10 nM, Hsp90 30 nM
# Method in brief: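 Fluorescence polarization competition with BODIPY-geldanamycin (10 nM final) and human Hsp90 (30 nM final) in HEPES-KOH pH 7.3 buffer with molybdate, NP-40, DTT; 2% DMSO, overnight at room temperature. Read 485/530 nm; percent inhibition from mP normalized to DMSO controls, fluorescent-compound points excluded.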
row,% Inhibition at 5 μM Compound Concentration,SMILES
1,29%,"CC(C)N1CCN(CCn2cnc(N)c3nc(Sc4cc5c(cc4Br)OCO5)nc2-3)CC1 [Example 488, 8-[(6-Bromo-1,3-benzodioxol-5-yl)thio]-3-[2-(4-isopropylpiperazin-1-yl)ethyl]-3H-purin-6-amine]"
2,6%,"COc1ccc(OC)c(Sc2nc3c(N)ncn(CCN4CCN(C5CCCC5)CC4)c-3n2)c1 [Example 495, 3-[2-(4-Cyclopentylpiperazin-1-yl)ethyl]-8-[(2,5-dimethoxyphenyl)thio]-3 H-purin-6-amine]"
3,21%,"C=Cn1cnc(N)c2nc(Sc3cc4c(cc3Br)OCO4)nc1-2 [Example 499, 8-(6-bromo-benzo[1,3]dioxol-5-ylsulfanyl)-3-vinyl-3H-6-ylamine]"
4,13.00%,"Nc1ncn(CCC2CCN(C(=O)C3CC3(F)F)CC2)c2nc(Sc3cc4c(cc3Br)OCO4)nc1-2 (centres unmarked) [Example 525, 8-[(6-Bromo-1,3-benzodioxol-5-yl)thio]-3-(2-{1-[(2,2-difluorocyclopropyl)carbonyl]piperidin-4-yl}ethyl)-3 H-purin-6-amine]"
5,19.00%,Nc1ncn(CCC2CCN(C(=O)C3(C(F)(F)F)CC3)CC2)c2nc(Sc3cc4c(cc3Br)OCO4)nc1-2 [Example 527]

# Same assay, conditions: BODIPY-GM 10 nM, Hsp90 30 nM
row,IC50,SMILES
1,90 nM,"Nc1ncnc2c1nc(Sc1cc3c(cc1Br)OCO3)n2CCC1CCNC1 (centres unmarked) [Example 476, 8-[(6-Bromo-1,3-benzodioxol-5-yl)thio]-9-(2-pyrrolidin-3-ylethyl)-9 H-purin-6-amine]"
2,467 nM,"Nc1ncnc2c1nc(Sc1cc3c(cc1Br)OCO3)n2CC[C@@H]1CCCCN1 [Example 477, 8-[(6-Bromo-1,3-benzodioxol-5-yl)thio]-9-{2-[(2S)-piperidin-2-yl]ethyl}-9 H-purin-6-amine]"
3,50 nM,"Nc1ncnc2c1nc(Sc1cc3c(cc1Br)OCO3)n2CC[C@H]1CC[C@@H](N)CC1 [Example 481, 9-[2-(cis-4-Aminocyclohexyl)ethyl] 8-[(6-bromo-1,3-benzodioxol-5-yl)thio]-9 H-purin-6-amine]"
4,184 nM,"Nc1ncnc2c1nc(Sc1cc3c(cc1Br)OCO3)n2CCC1CNC1 [Example 483, 9-(2-Azetidin-3-ylethyl)-8-[(6-bromo-1,3-benzodioxol-5-yl)thio]-9 H-purin-6-amine]"
5,600 nM,"Nc1ncnc2c1nc(Sc1cc3c(cc1Br)OCO3)n2CC[C@@H]1CCNC1 [Example 484, 8-[(6-Bromo-1,3-benzodioxol-5-yl)thio]-9-{2-[(3S)-pyrrolidin-3-yl]ethyl}-9 H-purin-6-amine]"
6,1000 nM,"COc1ccc(OC)c(Sc2nc3c(N)ncnc3n2CCN2C(=O)CCCC2=O)c1 [Example 485, 1-(2-{6-Amino-8-[(2,5-dimethoxyphenyl)thio]-9H-purin-9-yl}ethyl)piperidine-2,6-dione]"
7,7000 nM,"C=Cn1c(S(=O)(=O)c2cc(OC)ccc2OC)nc2c(N)ncnc21 [Example 486, 8-(2,5-dimethoxy-phenylsulfonyl)-9-vinyl-9H -purin-6-ylamine]"
8,25000 nM,"COc1ccc(OC)c(Sc2nc3c(N)ncn(CCN4CCCCC4)c-3n2)c1 [Example 490, 8-[(2,5-Dimethoxyphenyl)thio]-3-(2-piperidin-1-ylethyl)-3 H-purin-6-amine]"
9,900 nM,"Nc1ncn(CCN2CCCCC2)c2nc(Sc3cc4c(cc3Br)OCO4)nc1-2 [Example 492, 8-[(6-Bromo-1,3-benzodioxol-5-yl)thio]-3-(2-piperidin-1-ylethyl)-3 H-purin-6-amine]"
10,5500 nM,"COc1ccc(OC)c(Sc2nc3c(N)ncnc3n2CCN2CCN(C3CCCC3)CC2)c1 [Example 494, 9-[2-(4-Cyclopentylpiperazin-1-yl)ethyl]-8-[(2,5-dimethoxyphenyl)thio]-9 H-purin-6-amine]"
11,81 nM,"Nc1ncnc2c1nc(Sc1cc3c(cc1Br)OCO3)n2CCN1C(=O)CCCC1=O [Example 496, 1-(2-{6-Amino-8-[(6-bromo-1,3-benzodioxol-5-yl)thio]-9H-purin-9-yl}ethyl)piperidine-2,6-dione]"
12,25000 nM,"Nc1ncn(CCN2C(=O)CCCC2=O)c2nc(Sc3cc4c(cc3Br)OCO4)nc1-2 [Example 497, 1-(2-{6-amino-8-[(6-bromo-1,3-benzodioxol-5-yl)thio]-3H-purin-3-yl}ethyl)piperidine-2,6-dione]"
13,525 nM,"C=Cn1c(Sc2cc3c(cc2Br)OCO3)nc2c(N)ncnc21 [Example 498, 8-(6-bromo-benzo[1,3]dioxol-5-ylsulfanyl)-9-vinyl-9H-6-ylamine]"
14,60 nM,"COC(=O)CCCNC(=O)N1CCC(CCn2c(Sc3cc4c(cc3Br)OCO4)nc3c(N)ncnc32)CC1 [Example 500, Methyl 4-({[4-(2-{6-amino-8-[(6-bromo-1,3-benzodioxol-5-yl)thio]-9H-purin-9-yl}ethyl)piperidin-1-yl]carbonyl}amino)butanoate]"
15,140 nM,"Nc1ncnc2c1nc(Sc1cc3c(cc1Br)OCO3)n2CCC1CCN(C(=O)NCCCC(=O)O)CC1 [Example 502, 4-({[4-(2-{6-Amino-8-[(6-bromo-1,3-benzodioxol-5-yl)thio]-9 H-purin-9-yl}ethyl)piperidin-1-yl]carbonyl}amino)butanoic acid]"
16,190 nM,"COC(=O)CCCNC(=O)N1CCCC(CCn2c(Sc3cc4c(cc3Br)OCO4)nc3c(N)ncnc32)C1 (centres unmarked) [Example 503, Methyl 4-({[3-(2-{6-amino-8-[(6-bromo-1,3-benzodioxol-5-yl)thio]-9 H-purin-9-yl}ethyl)piperidin-1-yl]carbonyl}amino)butanoate]"
17,85 nM,"COC(=O)[C@H](CCSC)NC(=O)N1CCC(CCn2c(Sc3cc4c(cc3Br)OCO4)nc3c(N)ncnc32)CC1 [Example 505, Methyl N-{[4-(2-{6-amino-8-[(6-bromo-1,3-benzodioxol-5-yl)thio]-9 H-purin-9-yl}ethyl)piperidin-1-yl]carbonyl}-L-methioninate]"
18,405 nM,"COC(=O)[C@H](CCSC)NC(=O)N1CCCC(CCn2c(Sc3cc4c(cc3Br)OCO4)nc3c(N)ncnc32)C1 (stereo partly drawn) [Example 507, Methyl N-{[3-(2-{6-amino-8-[(6-bromo-1,3-benzodioxol-5-yl)thio]-9 H-purin-9-yl}ethyl)piperidin-1-yl]carbonyl}-L-methioninate]"
19,250 nM,"Nc1ncnc2c1nc(Sc1cc3c(cc1Br)OCO3)n2CCC1CCN(C(=O)C2CCCC2)CC1 [Example 510, 8-[(6-Bromo-1,3-benzodioxol-5-yl)thio]-9-{2-[1-(cyclopentylcarbonyl)piperidin-4-yl]ethyl}-9 H-purin-6-amine]"
20,110 nM,"Nc1ncnc2c1nc(Sc1cc3c(cc1Br)OCO3)n2CCC1CCN(C(=O)C2CCC2)CC1 [Example 512, 8-[(6-Bromo-1,3-benzodioxol-5-yl)thio]-9-{2-[1-(cyclobutylcarbonyl)piperidin-4-yl]ethyl}-9 H-purin-6-amine]"
21,110 nM,"Nc1ncnc2c1nc(Sc1cc3c(cc1Br)OCO3)n2CCC1CCN(C(=O)C2CC2)CC1 [Example 514, 8-[(6-Bromo-1,3-benzodioxol-5-yl)thio]-9-{2-[1-(cyclopropylcarbonyl)piperidin-4-yl]ethyl}-9 H-purin-6-amine]"
22,600 nM,"CC1(C(=O)N2CCC(CCn3c(Sc4cc5c(cc4Br)OCO5)nc4c(N)ncnc43)CC2)CC1 [Example 516, 8-[(6-Bromo-1,3-benzodioxol-5-yl)thio]-9-(2-{1-[(1-methylcyclopropyl)carbonyl]piperidin-4-yl}ethyl)-9 H-purin-6-amine]"
23,140 nM,"CC1CC1C(=O)N1CCC(CCn2c(Sc3cc4c(cc3Br)OCO4)nc3c(N)ncnc32)CC1 (centres unmarked) [Example 518, 8-[(6-Bromo-1,3-benzodioxol-5-yl)thio]-9-(2-{1-[(2-methylcyclopropyl)carbonyl]piperidin-4-yl}ethyl)-9 H-purin-6-amine]"
24,> 2000 nM,"CC1(C)C(C(=O)N2CCC(CCn3c(Sc4cc5c(cc4Br)OCO5)nc4c(N)ncnc43)CC2)C1(C)C [Example 520, 8-[(6-Bromo-1,3-benzodioxol-5-yl)thio]-9-(2-{1-[(2,2,3,3-tetramethylcyclopropyl)carbonyl]piperidin-4-yl}ethyl)-9 H-purin-6-amine]"
25,53 nM,"Nc1ncnc2c1nc(Sc1cc3c(cc1Br)OCO3)n2CCC1CCN(C(=O)[C@H]2C[C@@H]2F)CC1 [Example 522, 8-[(6-Bromo-1,3-benzodioxol-5-yl)thio]-9-[2-(1-{[(2S)-2-fluorocyclopropyl]carbonyl}piperidin-4-yl)ethyl]-9 H-purin-6-amine]"
26,100 nM,"Nc1ncnc2c1nc(Sc1cc3c(cc1Br)OCO3)n2CCC1CCN(C(=O)C2CC2(F)F)CC1 (centres unmarked) [Example 524, 8-[(6-Bromo-1,3-benzodioxol-5-yl)thio]-9-(2-{1-[(2,2-difluorocyclopropyl)carbonyl]piperidin-4-yl}ethyl)-9 H-purin-6-amine]"
27,300 nM,"Nc1ncnc2c1nc(Sc1cc3c(cc1Br)OCO3)n2CCC1CCN(C(=O)C2(C(F)(F)F)CC2)CC1 [Example 526, 8-[(6-Bromo-1,3-benzodioxol-5-yl)thio]-9-[2-(1-{[1-(trifluoromethyl)cyclopropyl]carbonyl}piperidin-4-yl)ethyl]-9 H-purin-6-amine]"
28,> 5000 nM,"CC(=O)N1CCC(CCn2c(Sc3ccc4c(c3)CCO4)nc3c(N)ncnc32)CC1 [Example 528, 9-[2-(1-Acetylpiperidin-4-yl)ethyl]-8-(2,3-dihydro-1-benzofuran-5-ylthio)-9 H-purin-6-amine]"

row,SMILES,IC50
1,"CC(C)N1CCN(CCn2c(Sc3cc4c(cc3Br)OCO4)nc3c(N)ncnc32)CC1 [Example 487, 8-[(6-Bromo-1,3-benzodioxol-5-yl)thio]-9-[2-(4-isopropylpiperazin-1-yl)ethyl]-9H-purin-6-amine]",900 nM
2,"COc1ccc(OC)c(Sc2nc3c(N)ncnc3n2CCN2CCN(C(C)C)CC2)c1 [Example 493, 8-[(2,5-Dimethoxyphenyl)thio]-9-[2-(4-isopropylpiperazin-1-yl)ethyl]-9 H-purin-6-amine]",8900 nM
